Drawing on patent publication US4649198A, “Imidazo(1,5-a)pyrimidine derivatives and their use as antimycotic agents” (Kyorin Pharmaceutical Co., Ltd., priority 1983, dated 1987), this text covers MIC for 9 molecules.

Values after ≈ are worked out from the molar mass of the structure shown.

Common to all, as to experiment: antifungal activity, standard agar dilution streak method
Common to all, as to assay type: cell-based

Test [1] relates to Candida albicans MTU-12124. The note with it: MTU12124, read-out: Minimum Inhibitory Concentration. As for the experimental part: (§1) The antifungal activity of the compound of the present invention was assayed by the standard agar dilution streak method against fungi.
The test system of the next test is Candida albicans KYF-602. The conditions noted are these: KYF602, read-out: Minimum Inhibitory Concentration. On the procedure: as §1
Test [2] concerns Candida stellatidea IFO-1398. The conditions noted are these: IFO1398, read-out: Minimum Inhibitory Concentration. As for the experimental part: as §1
Test [3] relates to Candida albicans IFO-1388. The note with it: IFO1388, read-out: Minimum Inhibitory Concentration. On the procedure:
as §1

The subject of test [4] is Candida albicans IFO-1594. The note with it: IFO1594, read-out: Minimum Inhibitory Concentration. As for the experimental part: as §1
In another test the test system is Candida albicans 3147. The conditions noted are these: read-out: Minimum Inhibitory Concentration. On the procedure:
as §1

For test [5], the system named is Aspergillus fumigatus MTU-06002. The conditions noted are these: MTU06002, read-out: Minimum Inhibitory Concentration. As for the experimental part: as §1
For test [6], the system named is Trichophyton mentagrophytes MTU-19005. The conditions noted are these: MTU19005, read-out: Minimum Inhibitory Concentration. As for the experimental part: as §1
The next test has as its system Microsporum canis 20010. The conditions noted are these: read-out: Minimum Inhibitory Concentration. On the procedure:
as §1

Test [7] has as its system Trichophyton mentagrophytes MTU-19003. The conditions noted are these: MTU19003, read-out: Minimum Inhibitory Concentration. On the procedure:
as §1

In the case of `Clc1cc(Cl)n2c(-c3ccc(I)cc3)ncc2n1` [Ex. 21], the MIC in test [1] is 1.56 µg/mL (≈ 4 µM); in the test with Candida albicans KYF-602, more than 6.25 µg/mL; in [2] it was 1.56 µg/mL (≈ 4 µM); in [3] it was 3.13 µg/mL (≈ 8.03 µM); in test [4], 6.25 µg/mL (≈ 16 µM); in the test on Candida albicans 3147, 1.56 µg/mL (≈ 4 µM).

For the molecule `Clc1cc(Cl)n2c(C3CCCCC3)ncc2n1` [Ex. 23], the MIC came to 6.25 µg/mL (≈ 23.1 µM) in test [1]; 3.13 µg/mL (≈ 11.6 µM) in the test with Candida albicans KYF-602; 3.13 µg/mL (≈ 11.6 µM) in test [2]; 50 µg/mL (≈ 185 µM) in test [5]; 1.56 µg/mL (≈ 5.77 µM) in test [6]; 1.56 µg/mL (≈ 5.77 µM) with Microsporum canis 20010. In addition, the MIC in test [3] was found to be 0.2 µg/mL (≈ 0.74 µM); in test [7] it was 3.13 µg/mL (≈ 11.6 µM); in test [4] it was 0.39 µg/mL (≈ 1.44 µM); in the test on Candida albicans 3147 it was 1.56 µg/mL (≈ 5.77 µM).

`Clc1cc(Cl)n2c(-c3ccc(Br)cc3)ncc2n1` [Ex. 5]: the MIC came out at 3.13 µg/mL (≈ 9.13 µM) in test [1]; 6.25 µg/mL (≈ 18.2 µM) in the test with Candida albicans KYF-602; 0.2 µg/mL (≈ 0.583 µM) in [2]; 6.25 µg/mL (≈ 18.2 µM) in [5]; 0.78 µg/mL (≈ 2.27 µM) in [6]; 0.78 µg/mL (≈ 2.27 µM) in the test with Microsporum canis 20010. Moreover, the MIC in test [3] worked out at 1.56 µg/mL (≈ 4.55 µM); in test [7] it was 1.56 µg/mL (≈ 4.55 µM); in test [4] it was 3.13 µg/mL (≈ 9.13 µM); in the test with Candida albicans 3147, 1.56 µg/mL (≈ 4.55 µM).

As to `Clc1ccc(-c2ncc3nc(Cl)cc(Cl)n23)cc1` [Ex. 1, 2,4-dichloro-6-(4-chlorophenyl)imidazo[1,5-a]pyrimidine], the MIC in [1] was determined as 3.13 µg/mL (≈ 10.5 µM); in the test on Candida albicans KYF-602, 6.25 µg/mL (≈ 20.9 µM); in test [2] it was 0.2 µg/mL (≈ 0.67 µM); in [5], 6.25 µg/mL (≈ 20.9 µM); in test [6], 0.78 µg/mL (≈ 2.61 µM); with Microsporum canis 20010, 0.78 µg/mL (≈ 2.61 µM). In addition, the MIC in [3] came out at 1.56 µg/mL (≈ 5.23 µM); in [7], 1.56 µg/mL (≈ 5.23 µM); in test [4], 3.13 µg/mL (≈ 10.5 µM); in the test with Candida albicans 3147, 6.25 µg/mL (≈ 20.9 µM).

Turning to `Clc1ccc(Cc2ncc3nc(Cl)cc(Cl)n23)cc1` [Ex. 16], the MIC was 6.25 µg/mL (≈ 20 µM) in test [1]; 3.13 µg/mL (≈ 10 µM) in the test with Candida albicans KYF-602; 0.78 µg/mL (≈ 2.5 µM) in test [2]; 3.13 µg/mL (≈ 10 µM) in test [5]; 0.2 µg/mL (≈ 0.64 µM) in test [6]; 0.39 µg/mL (≈ 1.25 µM) in the test with Microsporum canis 20010. Moreover, the MIC (in [3]; in test [7]; in test [4]; in the test on Candida albicans 3147) was 1.56 µg/mL (≈ 4.99 µM) in each case.

Turning to `Clc1cc(Cl)n2c(-c3ccc(Cl)c(Cl)c3)ncc2n1` [Ex. 7], the MIC was 1.56 µg/mL (≈ 4.68 µM) in test [1]; 3.13 µg/mL (≈ 9.4 µM) in the test on Candida albicans KYF-602; 0.39 µg/mL (≈ 1.17 µM) in test [2]; more than 100 µg/mL in test [5]; 139 µg/mL (≈ 417 µM) in [6]; 0.39 µg/mL (≈ 1.17 µM) in the test on Microsporum canis 20010. Besides, the MIC in test [3] came to 1.56 µg/mL (≈ 4.68 µM); in test [7], 0.78 µg/mL (≈ 2.34 µM); in test [4], 1.56 µg/mL (≈ 4.68 µM); with Candida albicans 3147, 1.56 µg/mL (≈ 4.68 µM).

As for `Clc1ccc(Cc2ncc3nc(Cl)cc(Cl)n23)c(Cl)c1` [Ex. 20], the MIC in test [1] is 0.78 µg/mL (≈ 2.25 µM); in the test with Candida albicans KYF-602 it was more than 6.25 µg/mL; in test [2], 0.2 µg/mL (≈ 0.576 µM); in test [5], more than 6.25 µg/mL; in [6] it was 0.78 µg/mL (≈ 2.25 µM); in the test on Microsporum canis 20010 it was 0.78 µg/mL (≈ 2.25 µM). For the same molecule, the MIC was determined as 0.78 µg/mL (≈ 2.25 µM) in test [3], 1.56 µg/mL (≈ 4.5 µM) in [7], 0.78 µg/mL (≈ 2.25 µM) in test [4] and 0.78 µg/mL (≈ 2.25 µM) with Candida albicans 3147.

Take `CC(c1ccccc1)c1ncc2nc(Cl)cc(Cl)n12` (centres unmarked) [Ex. 18]: the MIC in test [1] was determined as 3.13 µg/mL (≈ 10.7 µM); in the test with Candida albicans KYF-602, 12.5 µg/mL (≈ 42.8 µM); in [2], 3.13 µg/mL (≈ 10.7 µM); in test [5], 25 µg/mL (≈ 85.6 µM); in [6] it was 1.56 µg/mL (≈ 5.34 µM); in the test with Microsporum canis 20010, 1.56 µg/mL (≈ 5.34 µM). The MIC came to 0.78 µg/mL (≈ 2.67 µM) in test [3], 1.56 µg/mL (≈ 5.34 µM) in test [7], 3.13 µg/mL (≈ 10.7 µM) in [4] and 3.13 µg/mL (≈ 10.7 µM) in the test with Candida albicans 3147.

For `Clc1ccc(-c2ncc3nc(Cl)cc(Cl)n23)c(Cl)c1` [Ex. 9], the MIC in test [1] was 1.56 µg/mL (≈ 4.68 µM); in the test on Candida albicans KYF-602 it was 6.25 µg/mL (≈ 18.8 µM); in test [2], 0.78 µg/mL (≈ 2.34 µM); in test [5] it was 12.5 µg/mL (≈ 37.5 µM); in test [6] it was 0.78 µg/mL (≈ 2.34 µM); in the test on Microsporum canis 20010 it was 1.56 µg/mL (≈ 4.68 µM). Moreover, the MIC amounted to 0.78 µg/mL (≈ 2.34 µM) in test [3], 1.56 µg/mL (≈ 4.68 µM) in test [7], 3.13 µg/mL (≈ 9.4 µM) in test [4] and 1.56 µg/mL (≈ 4.68 µM) with Candida albicans 3147.
